Consider 2 compounds from US10533228B2, “3.beta-hydroxysteroid dehydrogenase in steroid dependent disease” (THE CLEVELAND CLINIC FOUNDATION, priority 2013, dated 2020).

Experiment [1] has as its system 3βHSD. To be noted: cited from earlier work.
In experiment [2] the target is T1, 3βHSD1(367N) (Homo sapiens, UniProt P14060, T367N).
T1 construct: made in house; host or cells: Saccharomyces cerevisiae W303B (microsomes)
T1 sequence (P14060 1-373 T367N): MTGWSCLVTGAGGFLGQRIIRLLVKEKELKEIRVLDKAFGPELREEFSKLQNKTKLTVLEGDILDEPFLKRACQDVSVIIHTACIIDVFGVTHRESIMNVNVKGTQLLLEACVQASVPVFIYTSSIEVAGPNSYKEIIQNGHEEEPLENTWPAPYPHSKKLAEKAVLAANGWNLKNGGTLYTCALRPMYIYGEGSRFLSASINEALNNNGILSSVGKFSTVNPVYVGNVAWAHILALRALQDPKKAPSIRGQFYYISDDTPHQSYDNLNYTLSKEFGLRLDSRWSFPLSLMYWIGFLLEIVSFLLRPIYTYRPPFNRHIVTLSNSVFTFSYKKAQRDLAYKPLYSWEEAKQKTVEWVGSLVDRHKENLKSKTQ
Kind of experiment: Enzyme kinetics of DHEA metabolism, recombinant enzyme in yeast microsomes. It counts as biochemical. To be noted: Michaelis-Menten plot. The procedure:
(§1) Recombinant human 3βHSD1 was expressed in S cerevisciae strain W303B using yeast vector V10-3βHSD1 for wild-type and 367T proteins, and microsomes were prepared as described. Li et al., 2012. Incubations containing [^3H]-DHEA (0.5-40 μM, 100,000 cpm) and 25 μg microsomal protein in 0.25 ml of 50 mM potassium phosphate (pH 7.4) were pre-incubated at 37° C. for 1 min before initiating the reaction with NAD (0.1 mM). After 20 min at 37° C., the steroids were extracted with 1 ml dichloromethane, concentrated, and resolved on an Agilent 1260 HPLC equipped with a Kinetex 2.1×100 mm, 2.6 μm C18 reverse-phase column (Phenomenex, Torrance, Calif.) using methanol-water gradients at 0.4 ml/min. The column effluent was analyzed with a β-RAM4 (LabLogic) in-line scintillation counter and Bio-SafeII cocktail (Research Products International). Means of triplicate determinations were plotted as v versus [S], and kinetic constants Km and Vmax were obtained by fitting the data to the Michaelis-Menten equation using Origin version 7.5.

Experiment [3] concerns the target T2, 3βHSD1(367T) (Homo sapiens, UniProt P14060).
T2 construct: made in house; host or cells: Saccharomyces cerevisiae W303B (microsomes)
T2 sequence (P14060 2-373): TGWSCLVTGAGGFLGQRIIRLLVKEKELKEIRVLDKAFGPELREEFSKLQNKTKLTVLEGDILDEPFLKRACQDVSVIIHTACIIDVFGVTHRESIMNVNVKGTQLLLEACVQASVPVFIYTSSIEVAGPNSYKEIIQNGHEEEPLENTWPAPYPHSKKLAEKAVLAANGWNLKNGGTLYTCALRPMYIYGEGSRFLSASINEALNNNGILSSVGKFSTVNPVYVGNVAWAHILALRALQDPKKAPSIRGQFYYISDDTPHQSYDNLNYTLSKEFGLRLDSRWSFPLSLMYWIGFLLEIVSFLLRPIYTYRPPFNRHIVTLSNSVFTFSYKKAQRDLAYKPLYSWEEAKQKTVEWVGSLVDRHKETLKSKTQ
Described as above. It counts as biochemical. To be noted: Michaelis-Menten plot. The procedure:
as §1

In experiment [4] the test system is PSA and TMPRSS2 expression. The experiment can be described thus: AR-regulated gene expression by qPCR in LAPC4. To be noted: LAPC4, qPCR normalized to RPLP0 and vehicle. It counts as cell-based, human. The protocol:
(§2) Gene expression. To accurately quantitate each gene transcript, qPCR was performed as previously described. Chang et al., 2011. Briefly, the iTaq SYBR Green Supermix with ROX kit (Bio-Rad, Hercules, Calif.) was applied for the thermocycling reaction in an ABI-7500 Real-Time PCR machine (Applied Biosystems, Foster City, Calif.). Total RNA (1 μg) collected by RNeasy kit (QIAGEN) was used in a RT reaction with the iScript cDNA synthesis kit (Bio-Rad). The qPCR analysis was carried out in triplicate with the following primer sets: HSD3B1 (Forward: 5′-[…]-3′ (SEQ ID NO: 11); Reverse: 5′-[…]-3′ (SEQ ID NO: 12)), PSA (Forward: 5′-[…]-3′ (SEQ ID NO: 13); Reverse: 5′-[…]-3′ (SEQ ID NO: 14)), TMPRSS2 (Forward: 5′-[…]-3′ (SEQ ID NO: 15); Reverse: 5′-[…]-3′ (SEQ ID NO: 16)), the housekeeping gene large ribosomal protein P0 (RPLP0) (Forward: 5′-CGAGGGCACCTGGAAAAC-3′ (SEQ ID NO: 17); Reverse: 5′-CACATTCCCCCGGATATGA-3′ (SEQ ID NO: 18)) and GAPDH (Forward: 5′-[…]-3′ (SEQ ID NO: 19); Reverse: 5′-[…]-3′ (SEQ ID NO: 20)). Each mRNA transcript was quantitated by normalizing the sample values to RPLP0 or GAPDH and to non-silencing control cells (for knockdown) or to vehicle treated cells (for steroid treated cells). All gene expression studies were repeated in independent experiments.
A general note: Quantitative PCR measures a nucleic acid by following its amplification.

For experiment [5], the system named is LAPC4 cells. Kind of experiment: Steroid metabolism (flux from [3H]-DHEA to AD), HPLC. To be noted: LAPC4, 100 nM, after 48 hours. It counts as cell-based, human. The procedure: (§3) Steroid metabolism experiments were performed 12 hours after seeding cells by treatment with 1 mL serum-free medium containing [^3H]-labeled DHEA (100 nM, 300,000-600,000 cpm; PerkinElmer). Aliquots of medium were collected for up to 48 hours, treated with β-glucuronidase (1000 units; Sigma-Aldrich) at 65° C. for 4 hours. Deconjugated steroids were extracted, evaporated under nitrogen stream, dissolved in 50% methanol, injected on a Breeze 1525 system equipped with model 717 plus autoinjector (Waters Corp.) and steroid metabolites were separated on a Luna 150×3 mm, […] C18 reverse-phase column (Phenomenex). The column effluent was mixed with Liquiscint scintillation cocktail (National Diagnostics) and analyzed by a β-RAM model 3 in-line radioactivity detector (IN/US Systems). Steroid metabolism experiments with transient enzyme expression were performed with pCMV5-HSD3B1 (367N and 367T) constructs 24 hours after transfection and 12 hours after treatment with 25 μM cycloheximide (CHX). […]
(§4) Cells (300,000-400,000 cells per well) were plated in 12-well plates coated with poly-L-ornithine. […] The column effluent was mixed with Liquiscint scintillation cocktail (National Diagnostics, Atlanta, Ga.) and analyzed by a β-RAM model 3 in-line radioactivity detector (LabLogic, Brandon, Fla.). […]

The subject of experiment [6] is LNCaP cells. Described as above. To be noted: 100 nM, after 48 hours. It counts as cell-based, human. The procedure: as §3, §4
Experiment [7] concerns PSA and TMPRSS2 expression. The experiment can be described thus: AR-regulated gene expression by qPCR in LNCaP. The class given is cell-based, human. To be noted: qPCR normalized to RPLP0 and vehicle. The procedure: as §2

In general, Km refers to the substrate concentration at which the rate is half of its maximum.

The structures appear in SMILES notation.

Consider `CC(=O)O[C@H]1CC[C@@]2(C)C(=CC[C@@H]3[C@@H]2CC[C@]2(C)C(c4cccnc4)=CC[C@@H]32)C1` [abiraterone, abiraterone acetate], for which the “inhibition of 3βHSD” value in experiment [1] is “weakly inhibits”.

With `C[C@]12CC[C@H](O)CC1=CC[C@@H]1[C@@H]2CC[C@]2(C)C(=O)CC[C@@H]12` [DHEA, dehydroepiandrosterone], the figures for the Michaelis constant (Km) in experiment [2] and in experiment [3] were 32 µM and 7 µM, respectively. Moreover, the “PSA and TMPRSS2 expression” value in experiment [4] was “absence of DHEA concentration-dependent increases in AR-regulated PSA and TMPRSS2”; in experiment [7], “induces PSA and TMPRSS2 expression in a concentration-dependent manner”. Also, the “[3H]-DHEA metabolized by 3βHSD enzymatic activity to AD” value in experiment [5] is reported as “approximately 10%”; in experiment [6] it was above 90%.
